Source: ChEMBL document CHEMBL5360626, “Bifunctionalized Betulinic Acid Conjugates with C-3-Monodesmoside and C-28-Triphenylphosphonium Moieties with Increased Cancer Cell Targetability” (J Nat Prod, 2023)
Calls of active or inactive are those of the source. The rule behind the calls is not given here.

How the values were obtained:
[1] = Drug accumulation in human PC-3 cells at 1 uM incubated for 2 hrs by LC-MS/MS analysis; format: ADME, cell-based; conditions: pc-3, 2 h
[2] = Selectivity index, ratio of IC50 for human skin fibroblast to IC50 for human Caco-2 cells
PC-3 [3] = test: Cytotoxicity against human PC-3 cells incubated for 72 hrs by MTT assay; format: functional, cell-based; conditions: PC-3, 72 h
Caco-2 = test: Cytotoxicity against human Caco-2 cells incubated for 72 hrs by MTT assay; format: functional, cell-based; conditions: Caco-2, 72 h
PC-3 [4] = test: […] of ROS production in human PC-3 cells at 30 uM incubated for 1 hr by MitoSOX staining based flow cytometry; format: functional, cell-based
PC-3 [5] = test: Induction of mitochondrial transmembrane potential dissipation in human PC-3 cells at 30 uM incubated for 1 hr by TMRE staining based flow cytometry; format: functional, cell-based
[6] = Cytotoxicity against human skin fibroblast cells incubated for 72 hrs by MTT assay; format: toxicity, cell-based
MCF7 = test: Cytotoxicity against human MCF7 cells incubated for 72 hrs by MTT assay; format: functional, cell-based; conditions: MCF7, 72 h
[7] = Selectivity index, ratio of IC50 for human skin fibroblast to IC50 for human PC-3 cells; format: toxicity; conditions: human skin fibroblasts and PC-3 cells, read-out: Ratio IC50
PC-3 [8] = test: Downregulation of Beclin-1 expression in human PC-3 cells at IC50 incubated for 3 days by Western blot analysis; format: functional, cell-based; conditions: time 3.0 day
PC-3 [9] = test: Downregulation of ATG14 expression in human PC-3 cells at IC50 incubated for 3 days by Western blot analysis; format: functional, cell-based; conditions: time 3.0 day
PC-3 [10] = test: Downregulation of Akt expression in human PC-3 cells at IC50 incubated for 3 days by Western blot analysis; format: functional, cell-based; conditions: time 3.0 day
PC-3 [11] = test: Downregulation of LC-3 expression in human PC-3 cells at IC50 incubated for 3 days by Western blot analysis; format: functional, cell-based; conditions: time 3.0 day
PC-3 [12] = test: Upregulation of Cas3 expression in human PC-3 cells at IC50 incubated for 3 days by Western blot analysis; format: functional, cell-based; conditions: time 3.0 day

In the case of C=C(C)[C@@H]1CC[C@]2(C(=O)OCCCCCC[P+](c3ccccc3)(c3ccccc3)c3ccccc3)CC[C@]3(C)[C@H](CC[C@@H]4[C@@]5(C)CC[C@H](O[C@H]6O[C@H](CO)[C@@H](O)[C@H](O)[C@@H]6O)C(C)(C)[C@@H]5CC[C@]43C)[C@@H]12.[Br-], the Drug uptake [1] is reported as 3.5 µM, the Ratio IC50 [2] is reported as 2.4 and the IC50 (PC-3 [3]) is reported as 2300 nM. For the same compound, the IC50 (Caco-2) was 2400 nM, the Activity (PC-3 [4]) was “Active” and the Activity (PC-3 [5]) was “Active”. It also gave an IC50 at 72 h [6] of 2900 nM, an IC50 (MCF7) of 2000 nM and a selectivity ratio [7] of 2.5.

With C=C(C)[C@@H]1CC[C@]2(C(=O)OCCCCCC[P+](c3ccccc3)(c3ccccc3)c3ccccc3)CC[C@]3(C)[C@H](CC[C@@H]4[C@@]5(C)CC[C@H](O)C(C)(C)[C@@H]5CC[C@]43C)[C@@H]12.[Br-] the Drug uptake [1] was 3.5 µM, the Ratio IC50 [2] was 4.7 and the IC50 (PC-3 [3]) was 800 nM. For the same compound, the IC50 (Caco-2) was 1400 nM, the IC50 at 72 h [6] was 8500 nM and the IC50 (MCF7) was 800 nM. The selectivity ratio [7] was 8.3.

For C=C(C)[C@@H]1CC[C@]2(C(=O)O)CC[C@]3(C)[C@H](CC[C@@H]4[C@@]5(C)CC[C@H](O)C(C)(C)[C@@H]5CC[C@]43C)[C@@H]12 [BETULINIC ACID], the Drug uptake [1] was 0.035 µM.

For C=C(C)[C@@H]1CC[C@]2(C(=O)OCCCCCC[P+](c3ccccc3)(c3ccccc3)c3ccccc3)CC[C@]3(C)[C@H](CC[C@@H]4[C@@]5(C)CC[C@H](O[C@@H]6O[C@H](CO)[C@@H](O)[C@H](O)[C@H]6O)C(C)(C)[C@@H]5CC[C@]43C)[C@@H]12.[Br-], the Activity (PC-3 [8]) was “Active”, the Drug uptake [1] was 172.9 µM and the Activity (PC-3 [9]) was “Active”. It also gave a Ratio IC50 [2] of 10.2, an IC50 (PC-3 [3]) of 400 nM and an IC50 (Caco-2) of 1100 nM. The Activity (PC-3 [4]) was “Active”, the Activity (PC-3 [10]) was “Active” and the Activity (PC-3 [11]) was “Active”. The Activity (PC-3 [5]) was “Active”, the IC50 at 72 h [6] was 16500 nM and the IC50 (MCF7) was 700 nM. For the same compound, the selectivity ratio [7] was 32 and the Activity (PC-3 [12]) was “Active”.

With C=C(C)[C@@H]1CC[C@]2(C(=O)OCCCCCC[P+](c3ccccc3)(c3ccccc3)c3ccccc3)CC[C@]3(C)[C@H](CC[C@@H]4[C@@]5(C)CC[C@H](O[C@@H]6O[C@@H](C)[C@H](O)[C@@H](O)[C@H]6O)C(C)(C)[C@@H]5CC[C@]43C)[C@@H]12.[Br-] the Activity (PC-3 [8]) was “Active”, the Drug uptake [1] was 3.5 µM and the Activity (PC-3 [9]) was “Active”. The Ratio IC50 [2] was 5.9, the IC50 (PC-3 [3]) was 1200 nM and the IC50 (Caco-2) was 2000 nM. For the same compound, the Activity (PC-3 [4]) was “Active”, the Activity (PC-3 [10]) was “Active” and the Activity (PC-3 [11]) was “Active”. For the same compound, the Activity (PC-3 [5]) was “Active”, the IC50 at 72 h [6] was 10800 nM and the IC50 (MCF7) was 1100 nM. For the same compound, the selectivity ratio [7] was 9.7 and the Activity (PC-3 [12]) was “Active”.
